Reference: patent publication US20170290774A1, “NEUROKININ-1 RECEPTOR ANTAGONIST COMPOSITION FOR TREATMENT OF DISEASES AND CONDITIONS OF THE RESPIRATORY TRACT” (PLUS VITECH, S.L., priority 2014, published 2017)

System: MMP-14
Assay: Immunohistochemistry of MMP-14 in respiratory tract tissue of sodium hypochlorite aerosol-treated rabbits
Type: in vivo, New Zealand albino rabbits
From the text: It is known that the factors TGF-α, TGF-β 1, TGF-β 2, TGF-β 3, SPARC, MMP-3; MMP-7, MMP-9, MMP-11, MMP-13 and MMP-14, TGF-β, NF-kB, EGF, MMP-9, VEGF and TNF-α which are produced by lung cells (pneumocytes, fibroblasts and vascular endothelial cells) and inflammatory cells (macrophages, lymphocytes and polymorphonuclear leukocytes) are involved in the pathophysiology and development of said respiratory tract diseases. […] Herein, 27 New Zealand albino rabbits (New Zealand White Rabbit) with an initial average weight about 3 kg were used in this example. All subjects were administered an aerosol of a solution consisting of a mixture of water and sodium hypochlorite (35 g sodium hypochlorite per liter of water) at a rate of 5 mL of said solution by inhalation three times a day for 7 days (days 1 to 7 of experimentation). Subsequently, from days 3 to 7, a group of 3 rabbits (Group 1) was administered an oral dose of 10 mg/kg body weight per day, another group of 3 rabbits (Group 2) was administered an oral dose of 40 mg/kg body weight per day, a third group (Group 3) was administered an oral dose of 80 mg/kg body weight per day and a fourth group (Group 4) was administered an oral dose of 100 mg/kg body weight per day. […] This mixture was administered as an aerosol by inhalation, also from days 3 to 7, to a group of 3 rabbits (group 5) at a dose of 0.05 mg/kg body weight per day, to another group of three rabbits (Group 6) at a dose of 0.1 mg/kg body weight per day, to another group of three rabbits (Group 7) at a dose of 0.2 mg/kg body weight per day and to another group of three rabbits (Group 8) at a dose of 0.4 mg/kg body weight per day. A placebo consisting only of olive oil was administered from days 3 to 7 to a control group of 3 rabbits (placebo group). In parallel, 3 rabbits were kept under identical conditions but were not administered any treatment nor the aforementioned sodium hypochlorite solution (control group). […] On day 7 of the experiment all animals were euthanized and necropsied. […] Samples were taken at the peripheral level of the lung parenchyma, just below the pleural surface. Tissue samples were also taken from the nasal cavity, pharynx, larynx and bronchi. Immunohistochemistry studies were performed for all samples to evaluate the levels of the markers TGF-α, TGF-β 1, TGF-β 2, TGF-β 3 SPARC, MMP-3; MMP-7, MMP-9, MMP-11, MMP-14, TGF-β, TNF-α and VEGF. In said immunohistochemistry studies, a sample of each sample was dehydrated by treatment with increasing concentrations of ethanol and finally xylene. Subsequently said dried samples were embedded in paraffin, thus creating a block. Said paraffin blocks were cut on a microtome to a thickness of 5 μm, and the resulting sections (slices) were placed on slides suitable for conducting immunohistochemistry techniques. Subsequently, the sections were deparaffinised by immersion in xylene and then rehydrated through immersion in a series of solutions containing decreasing concentrations of ethanol and, finally, water. […] The samples were then allowed to cool to room temperature over 10 minutes. Endogenous peroxidase activity was blocked by treatment with 3% hydrogen peroxide over 30 min at room temperature. […] In order to verify the expression of NK1 receptors, the cell samples were incubated in the presence of anti-NK1 antibodies ([…], Sigma-Aldrich) diluted 1:1000 at 4° C. overnight. After this time they were washed in 0.05M Tris buffer at room temperature. Subsequently, Envision System-HRP (Dako) reagents were added for 30 min at room temperature. Once this time had expired, the samples were again washed with 0.05 M Tris buffer, and immunoreactivity was visualized by light microscopy with a chromogenic solution with 3,3'-diaminobenzidine (DAB+; Dako, USA). In order to differentiate the cell nuclei, these were lightly stained with haematoxylin. Samples that were not incubated with the primary antibody, but wherein this was replaced by a non-immune serum were used as negative controls. […]

Structure (SMILES): C[C@@H](OC1OCCN(Cc2nc(=O)[nH][nH]2)C1c1ccc(F)cc1)c1cc(C(F)(F)F)cc(C(F)(F)F)c1 (stereo in doubt) [Aprepitant, 5-([(2R,3S)-2-((R)-1-[3,5-bis(trifluoromethyl)phenyl]ethoxy)-3-(4-fluorophenyl)morpholino]methyl)-1H-1,2,4-triazol-3(2H)-one]
- Percent increase in MMP-14 with respect to the control group (bronchial tissue, Group 1, oral 10 mg/kg per day): 567.32%
- Percent increase in MMP-14 with respect to the control group (bronchial tissue, Group 2, oral 40 mg/kg per day): 434.45%
- Percent increase in MMP-14 with respect to the control group (bronchial tissue, Group 3, oral 80 mg/kg per day): 325.56%
- Percent increase in MMP-14 with respect to the control group (bronchial tissue, Group 4, oral 100 mg/kg per day): 312.56%
- % Med G5/C: percent increase in marker MMP-14 with respect to the control group (bronchial tissue, Group 5): 458.45%
- % Med G6/C: percent increase in marker MMP-14 with respect to the control group (bronchial tissue, Group 6): 342.32%
- % Med G7/C: percent increase in marker MMP-14 with respect to the control group (bronchial tissue, Group 7): 246.47%
- % Med G8/C: percent increase in marker MMP-14 with respect to the control group (bronchial tissue, Group 8): 164.63%
- Percent increase in MMP-14 with respect to the control group (laryngeal tissue, Group 1, oral 10 mg/kg per day): 678.45%
- Percent increase in MMP-14 with respect to the control group (laryngeal tissue, Group 2, oral 40 mg/kg per day): 567.34%
- Percent increase in MMP-14 with respect to the control group (laryngeal tissue, Group 3, oral 80 mg/kg per day): 459.43%
- Percent increase in MMP-14 with respect to the control group (laryngeal tissue, Group 4, oral 100 mg/kg per day): 387.34%
- Percent increase in MMP-14 with respect to the control group (laryngeal tissue, Group 5, inhalation 0.05 mg/kg per day): 639.34%
- Percent increase in MMP-14 with respect to the control group (laryngeal tissue, Group 6, inhalation 0.1 mg/kg per day): 543.12%
- Percent increase in MMP-14 with respect to the control group (laryngeal tissue, Group 7, inhalation 0.2 mg/kg per day): 342.23%
- Percent increase in MMP-14 with respect to the control group (laryngeal tissue, Group 8, inhalation 0.4 mg/kg per day): 201.28%
- Percent increase in MMP-14 with respect to the control group (lung tissue, Group 1, oral 10 mg/kg per day): 683.47%
- Percent increase in MMP-14 with respect to the control group (lung tissue, Group 2, oral 40 mg/kg per day): 569.37%
- Percent increase in MMP-14 with respect to the control group (lung tissue, Group 3, oral 80 mg/kg per day): 441.85%
- Percent increase in MMP-14 with respect to the control group (lung tissue, Group 4, oral 100 mg/kg per day): 354.84%
- Percent increase in MMP-14 with respect to the control group (lung tissue, Group 5, inhalation 0.05 mg/kg per day): 769.70%
- Percent increase in MMP-14 with respect to the control group (lung tissue, Group 6, inhalation 0.1 mg/kg per day): 323.25%
- Percent increase in MMP-14 with respect to the control group (lung tissue, Group 7, inhalation 0.2 mg/kg per day): 184.50%
- Percent increase in MMP-14 with respect to the control group (lung tissue, Group 8, inhalation 0.4 mg/kg per day): 153.36%
- Percent increase in MMP-14 with respect to the control group (nasal cavity tissue, Group 1, oral 10 mg/kg per day): 1,016.51%
- Percent increase in MMP-14 with respect to the control group (nasal cavity tissue, Group 2, oral 40 mg/kg per day): 680.45%
- Percent increase in MMP-14 with respect to the control group (nasal cavity tissue, Group 3, oral 80 mg/kg per day): 412.64%
- Percent increase in MMP-14 with respect to the control group (nasal cavity tissue, Group 4, oral 100 mg/kg per day): 317.68%
- Percent increase in MMP-14 with respect to the control group (nasal cavity tissue, Group 5, inhalation 0.05 mg/kg per day): 1,190.13%
- Percent increase in MMP-14 with respect to the control group (nasal cavity tissue, Group 6, inhalation 0.1 mg/kg per day): 510.81%
- Percent increase in MMP-14 with respect to the control group (nasal cavity tissue, Group 7, inhalation 0.2 mg/kg per day): 206.80%
- Percent increase in MMP-14 with respect to the control group (nasal cavity tissue, Group 8, inhalation 0.4 mg/kg per day): 149.00%
- Percent increase in MMP-14 with respect to the control group (pharyngeal tissue, Group 1, oral 10 mg/kg per day): 1,148.43%
- Percent increase in MMP-14 with respect to the control group (pharyngeal tissue, Group 2, oral 40 mg/kg per day): 980.64%
- Percent increase in MMP-14 with respect to the control group (pharyngeal tissue, Group 3, oral 80 mg/kg per day): 762.45%
- Percent increase in MMP-14 with respect to the control group (pharyngeal tissue, Group 4, oral 100 mg/kg per day): 560.45%
- Percent increase in MMP-14 with respect to the control group (pharyngeal tissue, Group 5, inhalation 0.05 mg/kg per day): 1,091.23%
- Percent increase in MMP-14 with respect to the control group (pharyngeal tissue, Group 6, inhalation 0.1 mg/kg per day): 709.21%
- Percent increase in MMP-14 with respect to the control group (pharyngeal tissue, Group 7, inhalation 0.2 mg/kg per day): 245.45%
- Percent increase in MMP-14 with respect to the control group (pharyngeal tissue, Group 8, inhalation 0.4 mg/kg per day): 135.00%
